Results from the supplement of paper PMC5908809.

How the values were obtained:
[1] = tested on: SNK-6 (IL-2 2.5 ng/mL); assay: percent inhibition of viability; higher = more inhibition; settings: 72 h
[2] = tested on: NKL (IL-2 2.5 ng/mL); assay: as above; settings: 72 h
[3] = tested on: YT (IL-2 2.5 ng/mL); assay: as above; settings: 72 h
[4] = tested on: normal primary NK cells, pool 1 (3 donors), resting (IL-2 0 ng/mL); assay: as above; settings: 72 h
[5] = tested on: NK-YS (IL-2 2.5 ng/mL); assay: as above; settings: 72 h
[6] = tested on: KHYG-1 (IL-2 2.5 ng/mL); assay: as above; settings: 72 h
[7] = tested on: NK-92 (IL-2 2.5 ng/mL); assay: as above; settings: 72 h
[8] = tested on: KAI3 (IL-2 2.5 ng/mL); assay: as above; settings: 72 h
[9] = tested on: normal primary NK cells, pool 2 (3 donors) (IL-2 2.5 ng/mL); assay: as above; settings: 72 h
[10] = tested on: normal primary NK cells, pool 3 (3 donors) (IL-2 2.5 ng/mL); assay: as above; settings: 72 h
[11] = tested on: DERL-7 (IL-2 2.5 ng/mL); assay: as above; settings: 72 h
[12] = tested on: normal primary NK cells, pool 1 (3 donors) (IL-2 2.5 ng/mL); assay: as above; settings: 72 h
[13] = tested on: IMC-1 (IL-2 20 ng/mL); assay: as above; settings: 72 h
[14] = tested on: normal NK cells expanded with K562-aAPC; assay: drug sensitivity score (DSS) (DSS units); higher = more sensitive; extreme values may be limits of the assay; settings: 72 h; IL-2 2.5 ng/mL
Method: (§1)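 Drug sensitivity and resistance testing on K562-aAPC-expanded normal NK cells: 5 concentrations (10-fold steps over a 10,000-fold range), 72 h at 37 °C, viability by CellTiter-Glo normalised to DMSO and benzethonium chloride controls; DSS from the fitted curve.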

[15] = tested on: normal NK cells expanded with K562-aAPC; assay: percent inhibition of viability; higher = more inhibition; settings: 72 h, IL-2 2.5 ng/mL
Method: as §1

[16] = tested on: SNK-6 (IL-2 2.5 ng/mL); assay: drug sensitivity score (DSS) (DSS units); higher = more sensitive; extreme values may be limits of the assay; settings: 72 h
[17] = tested on: NKL (IL-2 2.5 ng/mL); assay: as above; settings: 72 h
[18] = tested on: YT (IL-2 2.5 ng/mL); assay: as above; settings: 72 h
[19] = tested on: normal primary NK cells, pool 1 (3 donors), resting (IL-2 0 ng/mL); assay: as above; settings: 72 h
[20] = tested on: NK-YS (IL-2 2.5 ng/mL); assay: as above; settings: 72 h
[21] = tested on: KHYG-1 (IL-2 2.5 ng/mL); assay: as above; settings: 72 h
[22] = tested on: NK-92 (IL-2 2.5 ng/mL); assay: as above; settings: 72 h
[23] = tested on: KAI3 (IL-2 2.5 ng/mL); assay: as above; settings: 72 h
[24] = tested on: normal primary NK cells, pool 2 (3 donors) (IL-2 2.5 ng/mL); assay: as above; settings: 72 h
[25] = tested on: normal primary NK cells, pool 3 (3 donors) (IL-2 2.5 ng/mL); assay: as above; settings: 72 h
[26] = tested on: DERL-7 (IL-2 2.5 ng/mL); assay: as above; settings: 72 h
[27] = tested on: normal primary NK cells, pool 1 (3 donors) (IL-2 2.5 ng/mL); assay: as above; settings: 72 h
[28] = tested on: IMC-1 (IL-2 20 ng/mL); assay: as above; settings: 72 h

CCS(=O)(=O)c1cccc(-c2cc(C(=O)NC3CCN(C)CC3)c(C)c3[nH]c4ncc(C)cc4c23)c1 [TAK-901] (max concentration tested 1000 nM)
percent inhibition of viability [%]
Settings | 0.1 nM | 1 nM | 10 nM | 100 nM | 1000 nM
[1] | 6.55 | 11.7 | 6.25 | 25.7 | 70.1
[2] | -9.65 | -9.74 | -13.2 | 31.8 | 67.5
[3] | 0.92 | -0.2 | 0.62 | 11.9 | 28.7
[4] | -2.04 | -13.9 | 9.75 | -5.23 | 39.3
[5] | -2.75 | -0.83 | 5.54 | 65.6 | 70.5
[6] | -0.42 | -4.46 | -1.82 | 9.29 | 69
[7] | -8.6 | -16.9 | -4.19 | -5.4 | 6
[8] | 1.13 | 2.62 | 9.88 | 32.9 | 77.5
[9] | -4.84 | -2.84 | -10.5 | -3.4 | 24.9
[10] | 1.04 | -10.9 | -10.6 | -10.1 | 8.18
[11] | -2.6 | 5.56 | -0.1 | 67.8 | 79.7
[12] | -7.61 | -7.94 | 3.96 | 1 | 52
[13] | -1.14 | 1.82 | -2.81 | 39.8 | 96.9
[15] | -4.46 | -2.36 | -2.68 | 2.78 | 47.6

Settings | drug sensitivity score
[14] | 2.88
[16] | 6.86
[17] | 7.8
[18] | 2.64
[19] | 1.6
[20] | 12.9
[21] | 5.36
[22] | 0
[23] | 8.03
[24] | 0.75
[25] | 0
[26] | 12.5
[27] | 2.88
[28] | 10.6

COC(=O)C[C@](O)(CCCC(C)(C)O)C(=O)O[C@@H]1C(OC)=C[C@]23CCCN2CCc2cc4c(cc2[C@H]13)OCO4 [Omacetaxine] (max concentration tested 10000 nM)
percent inhibition of viability [%]
Settings | 1 nM | 10 nM | 100 nM | 1000 nM | 10000 nM
[1] | 0.3 | 72.3 | 95.2 | 95.4 | 99.9
[2] | 3.97 | 2.74 | 99.8 | 107 | 108
[3] | -7.92 | 19.8 | 98.2 | 107 | 108
[4] | 39.6 | 89.8 | 90.3 | 89.8 | 91.4
[5] | 1.36 | 1.43 | 100 | 105 | 108
[6] | -7.86 | -9.89 | 102 | 106 | 107
[7] | 1.68 | 7.27 | 100 | 106 | 108
[8] | 29.6 | 46.7 | 101 | 105 | 106
[9] | 4.96 | 73.8 | 93.2 | 93.8 | 95.3
[10] | 9.72 | 46.5 | 96.3 | 97.1 | 99.5
[11] | 5.07 | 60.5 | 100 | 101 | 101
[12] | 1.78 | 69 | 96.7 | 96.5 | 99
[13] | -8.96 | -3.07 | 99.7 | 101 | 101
[15] | 3.7 | 16 | 93.1 | 101 | 101

Settings | drug sensitivity score
[14] | 31.6
[16] | 38.8
[17] | 30.8
[18] | 33.7
[19] | 43.6
[20] | 30.6
[21] | 29.9
[22] | 31.6
[23] | 37.1
[24] | 38.4
[25] | 35.4
[26] | 37.8
[27] | 38.4
[28] | 30.1
